Test results as given in patent publication US12454536B2, “Deuterated 7-(3-(4-(2-([18F]fluoro)ethoxy)phenyl)propyl)-2-(furan-2-yl)-7H- pyrazolo [4,3-e][1,2,4]triazolo[1,5-C]pyrimidine-5-amine derivatives” (HELMHOLTZ-ZENTRUM DRESDEN-ROSSENDORF E.V., priority 2019, dated 2025).

How the values were obtained:
[1] = In-vivo metabolite study in female CD-1 mice (radio-HPLC); conditions: for intact radiotracer in the brain / intact radiotracer in the plasma: radio-HPLC
Experimental: In the in-vivo metabolite study in female CD-1 mice after 15 min p.i. in the brain 93% (radio-HPLC, n=3, extraction yield 98%) and in the plasma 79% (radio-HPLC, n=3, extraction yield 83%) of intact radiotracers have been detected.

[2] = target: hA1 (Homo sapiens, UniProt P30542); assay: biochemical
[3] = target: adenosine A2A receptors (Mus musculus, UniProt Q60613); assay: Radiotracer affinity (Kd, Bmax); assay type: binding; conditions: n=5
[4] = Stability of radiotracer in solutions and porcine plasma; assay type: in vitro ADME; conditions: 37° C., one hour
Experimental: [^18F]FLUDA has shown to be stable in a sodium chloride, PBS, n-octanol solution and in porcine plasma at 37° C. for one hour (PBS=phosphate buffered salt solution). Using the conventional “Shake-flask” method a log D74=2.01±0.07 (n=3) has been established.

[5] = system: striatum (brain slices); assay: In-vitro autoradiography in mouse brain slices; assay type: binding; conditions: brain slices of mice
[6] = PET study in healthy CD-1 mice; assay type: in vivo; conditions: striatum, 15 min p.i., n=3
[7] = target: hA2A (Homo sapiens, UniProt P29274); assay: Affinity for human adenosine A2A receptor (Ki); assay type: binding
[8] = female CD-1 mice, 15 min p.i., n=3
[9] = repeated study (Example 6A / Comparison example 1A)
[10] = further tests, taking into account the above data, n=3

hA1, sequence (P30542 whole entry): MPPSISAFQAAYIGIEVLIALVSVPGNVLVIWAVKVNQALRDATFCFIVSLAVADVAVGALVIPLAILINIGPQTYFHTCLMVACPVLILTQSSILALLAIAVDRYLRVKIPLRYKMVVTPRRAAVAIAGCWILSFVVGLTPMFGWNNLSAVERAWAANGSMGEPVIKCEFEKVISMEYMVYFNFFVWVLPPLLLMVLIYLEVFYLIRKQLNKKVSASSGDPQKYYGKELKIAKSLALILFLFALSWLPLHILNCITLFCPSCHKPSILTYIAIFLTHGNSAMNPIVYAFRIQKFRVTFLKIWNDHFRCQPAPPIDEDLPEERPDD
hA2A, sequence (P29274 whole entry): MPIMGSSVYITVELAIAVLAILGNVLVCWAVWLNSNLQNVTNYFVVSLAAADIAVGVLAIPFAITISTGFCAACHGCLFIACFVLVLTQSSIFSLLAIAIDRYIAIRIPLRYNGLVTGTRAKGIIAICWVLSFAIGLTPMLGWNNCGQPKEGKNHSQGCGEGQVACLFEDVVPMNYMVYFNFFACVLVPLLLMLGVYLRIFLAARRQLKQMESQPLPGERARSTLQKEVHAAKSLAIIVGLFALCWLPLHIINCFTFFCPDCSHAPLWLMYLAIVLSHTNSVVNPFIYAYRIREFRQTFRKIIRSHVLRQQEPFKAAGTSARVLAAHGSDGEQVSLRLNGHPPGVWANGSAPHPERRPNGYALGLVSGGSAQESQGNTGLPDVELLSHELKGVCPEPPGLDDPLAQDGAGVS
adenosine A2A receptors, sequence (Q60613 whole entry): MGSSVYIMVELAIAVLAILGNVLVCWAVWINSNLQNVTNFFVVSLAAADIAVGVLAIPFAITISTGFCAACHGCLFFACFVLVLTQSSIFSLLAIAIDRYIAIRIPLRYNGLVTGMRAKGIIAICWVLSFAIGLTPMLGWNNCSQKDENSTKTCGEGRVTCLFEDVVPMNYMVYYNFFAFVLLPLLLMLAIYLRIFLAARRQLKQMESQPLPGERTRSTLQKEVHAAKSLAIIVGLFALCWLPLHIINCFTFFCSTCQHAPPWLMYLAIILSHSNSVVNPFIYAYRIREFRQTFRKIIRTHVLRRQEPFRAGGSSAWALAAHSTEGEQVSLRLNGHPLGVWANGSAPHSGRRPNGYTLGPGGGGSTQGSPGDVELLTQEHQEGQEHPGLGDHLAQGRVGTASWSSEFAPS

| Bmax [3] [fmol/mg] | stability in PBS [4] | stability in n-octanol solution [4] | stability in porcine plasma [4] | stability in sodium chloride solution [4] | metabolic stability compared to 18F-labeled compound D ([1]; mouse, in vivo) | cerebral uptake SUV [6] | SMILES | intact radiotracer in the brain [1, 8] [%] | intact radiotracer in the plasma [1, 8] [%] | intact radiotracer in the brain [1, 9] [%] | intact radiotracer in the plasma [1, 9] [%] | Ki ([2]; n=4) [nM] | change of the radiotracer by A2A-selective ligands [5] | enrichment of the radiotracer in the target region (striatum) [5] | Ki ([7]; first determination) [nM] | Ki [7, 10] [nM] | Ki ([2]; first determination) [nM] | Ki [2, 10] [nM] |
| --- | --- | --- | --- | --- | --- | --- | --- | --- | --- | --- | --- | --- | --- | --- | --- | --- | --- | --- |
| – | – | – | – | – | – | – | Nc1nc2c(cnn2CCCc2ccc(OCC[18F])cc2)c2nc(-c3ccco3)nn12 (single isomer, unassigned) [[^18F]D, 7-(3-(4-(2-([^18F]fluoro)ethoxy)phenyl)propyl)-2-(furan-2-yl)-7H-pyrazolo[4,3-e][1,2,4]triazolo[1,5-c]pyrimidine-5-amine, reference compound] | 68 | 70 | 71 | 41 | 203 | – | – | – | – | – | – |
| 556 ± 143 | stable | stable | stable | stable | significantly higher | 0.8 | [2H]C([2H])([18F])C([2H])([2H])Oc1ccc(CCCn2ncc3c2nc(N)n2nc(-c4ccco4)nc32)cc1 [[^18F]FLUDA, 7-(3-(4-(2-([^18F]fluoro)ethoxy-1,1,2,2-d4)phenyl)propyl)-2-(furan-2-yl)-7H-pyrazolo[4,3-e][1,2,4]triazolo[1,5-c]pyrimidine-5-amine] | 93 | 79 | 100 | 82 | – | change of the radiotracer by means of A2A-selective ligands | selective enrichment | – | – | – | – |
| – | – | – | – | – | – | – | [2H]C([2H])(F)C([2H])([2H])Oc1ccc(CCCn2ncc3c2nc(N)n2nc(-c4ccco4)nc32)cc1 (single isomer, unassigned) [FLUDA, 7-(3-(4-(2-(fluoro)ethoxy-1,1,2,2-d4)phenyl)propyl)-2-(furan-2-yl)-7H-pyrazolo[4,3-e][1,2,4]triazolo[1,5-c]pyrimidine-5-amine] | – | – | – | – | – | – | – | 0.609 | 0.74 ± 0.26 | 767 | > 1000 |
